Results taken from ChEMBL document CHEMBL1155854, “Conformationally constrained farnesoid X receptor (FXR) agonists: Naphthoic acid-based analogs of GW 4064” (Bioorg Med Chem Lett, 2008).

How the values were obtained:
[1] = target: T1, Estrogen receptor (Homo sapiens, UniProt P03372); assay: Agonist activity at ERalpha by fluorescence polarization assay; assay type: functional
T1 sequence (P03372 whole entry): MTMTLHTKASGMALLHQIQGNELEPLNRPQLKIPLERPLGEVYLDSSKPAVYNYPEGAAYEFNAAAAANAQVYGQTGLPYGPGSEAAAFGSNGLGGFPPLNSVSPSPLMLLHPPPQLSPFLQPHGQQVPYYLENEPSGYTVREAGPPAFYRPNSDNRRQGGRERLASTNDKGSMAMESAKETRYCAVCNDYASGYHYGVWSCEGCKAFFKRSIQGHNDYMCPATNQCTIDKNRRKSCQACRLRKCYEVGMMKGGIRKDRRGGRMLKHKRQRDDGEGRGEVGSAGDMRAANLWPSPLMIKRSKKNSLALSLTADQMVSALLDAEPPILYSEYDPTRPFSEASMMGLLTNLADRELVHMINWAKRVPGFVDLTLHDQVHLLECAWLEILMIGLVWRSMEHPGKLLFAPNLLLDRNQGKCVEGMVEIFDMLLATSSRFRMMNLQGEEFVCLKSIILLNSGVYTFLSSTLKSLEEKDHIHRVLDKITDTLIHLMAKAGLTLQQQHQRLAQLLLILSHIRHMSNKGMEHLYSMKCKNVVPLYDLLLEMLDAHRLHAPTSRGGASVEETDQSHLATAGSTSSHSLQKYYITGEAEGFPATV

[2] = target: T2, Peroxisome proliferator-activated receptor delta (Homo sapiens, UniProt Q03181); assay: Agonist activity at PPARdelta by transient transfection assay; assay type: functional
T2 sequence (Q03181 whole entry): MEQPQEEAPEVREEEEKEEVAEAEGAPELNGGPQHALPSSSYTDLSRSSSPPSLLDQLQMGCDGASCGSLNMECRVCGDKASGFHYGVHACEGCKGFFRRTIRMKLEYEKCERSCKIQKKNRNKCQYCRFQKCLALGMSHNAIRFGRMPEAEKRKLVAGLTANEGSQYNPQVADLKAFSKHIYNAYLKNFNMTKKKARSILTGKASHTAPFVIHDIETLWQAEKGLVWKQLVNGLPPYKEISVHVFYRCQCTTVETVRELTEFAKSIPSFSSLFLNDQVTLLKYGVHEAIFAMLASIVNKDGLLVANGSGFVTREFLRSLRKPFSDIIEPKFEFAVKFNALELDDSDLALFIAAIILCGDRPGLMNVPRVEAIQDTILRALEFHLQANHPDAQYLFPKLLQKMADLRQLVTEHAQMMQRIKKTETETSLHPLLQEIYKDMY

CC(C)c1onc(-c2c(Cl)cccc2Cl)c1COc1ccc(-c2ccc3c(C(=O)O)cccc3c2)cc1
XC50 [1]: > 20 µM
XC50 [2]: > 10 µM
